# Measurements taken from PubChem BioAssay AID1963442 (Molecular Pharmacology Branch, DTP, NCI, 2024).
# Tested on: MPNST complex spheroid with HUVEC/MSC, growth, % test/control
# Test: Anticancer human tumor MPNST cell line growth inhibition [Asc];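 further: compounds left on spheroids for seven days before reading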
# Settings: for IC50: curve of first compound; for viability, T/C: stronger effect = lower value
# Outline: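 Complex spheroids combining tumor cells with HUVEC endothelial cells and human MSCs, at 37 degrees C, 5% CO2; agents tested alone or combined, half-log dilutions from at or near clinical Cmax, or 10 microM if Cmax unknown.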
compound,measurement,setting,value
CCN1CCN(Cc2ccc(Nc3ncc(F)c(-c4cc(F)c5nc(C)n(C(C)C)c5c4)n3)nc2)CC1 + Cc1c(S(C)(=O)=O)c(-c2cc(F)cc(N3CCN(c4ccc(NS(=O)(=O)c5ccc(NC(CCN6CCC(C(=O)OCCCP(=O)(O)O)CC6)CSc6ccccc6)c(S(=O)(=O)C(F)(F)F)c5)cc4)CC3)c2)c(-c2ccc(Cl)cc2)n1C(C)C,IC50,second compound 0.1 µM,> 1000 nM
same,IC50,second compound 0.316 µM,> 1000 nM
same,IC50,second compound 1 µM,> 1000 nM
same,IC50,second compound 3.16 µM,1000 nM
same,IC50,second compound 10 µM,316 nM
same,"viability, T/C","second compound 0.1 µM, first compound 0.00316 µM",75.8%
same,"viability, T/C","second compound 0.1 µM, first compound 0.01 µM",72.3%
same,"viability, T/C","second compound 0.1 µM, first compound 0.0316 µM",73.7%
same,"viability, T/C","second compound 0.1 µM, first compound 0.1 µM",78.3%
same,"viability, T/C","second compound 0.1 µM, first compound 0.316 µM",55.8%
same,"viability, T/C","second compound 0.1 µM, first compound 1 µM",64.5%
same,"viability, T/C","second compound 0.316 µM, first compound 0.00316 µM",82.8%
same,"viability, T/C","second compound 0.316 µM, first compound 0.01 µM",54.8%
same,"viability, T/C","second compound 0.316 µM, first compound 0.0316 µM",75.6%
same,"viability, T/C","second compound 0.316 µM, first compound 0.1 µM",84.2%
same,"viability, T/C","second compound 0.316 µM, first compound 0.316 µM",53.5%
same,"viability, T/C","second compound 0.316 µM, first compound 1 µM",58%
same,"viability, T/C","second compound 1 µM, first compound 0.00316 µM",76.6%
same,"viability, T/C","second compound 1 µM, first compound 0.01 µM",78.5%
same,"viability, T/C","second compound 1 µM, first compound 0.0316 µM",76.9%
same,"viability, T/C","second compound 1 µM, first compound 0.1 µM",62.3%
same,"viability, T/C","second compound 1 µM, first compound 0.316 µM",53%
same,"viability, T/C","second compound 1 µM, first compound 1 µM",55.1%
same,"viability, T/C","second compound 3.16 µM, first compound 0.00316 µM",73.3%
same,"viability, T/C","second compound 3.16 µM, first compound 0.01 µM",77.9%
same,"viability, T/C","second compound 3.16 µM, first compound 0.0316 µM",57%
same,"viability, T/C","second compound 3.16 µM, first compound 0.1 µM",47.6%
same,"viability, T/C","second compound 3.16 µM, first compound 0.316 µM",56.3%
same,"viability, T/C","second compound 3.16 µM, first compound 1 µM",47.3%
same,"viability, T/C","second compound 10 µM, first compound 0.00316 µM",83.5%
same,"viability, T/C","second compound 10 µM, first compound 0.01 µM",91.4%
same,"viability, T/C","second compound 10 µM, first compound 0.0316 µM",50.2%
same,"viability, T/C","second compound 10 µM, first compound 0.1 µM",52.8%
same,"viability, T/C","second compound 10 µM, first compound 0.316 µM",55.4%
same,"viability, T/C","second compound 10 µM, first compound 1 µM",47.1%
